The source of these data is publication PMC2769143, “Variations in IC50 Values with Purity of Mushroom Tyrosinase” (International Journal of Molecular Sciences, 2009).

Assay [1] has as its target crude mushroom tyrosinase (MT) extract. The experiment in a line: DOPA oxidation (dopachrome, 475 nm) assay with crude MT extract, with 0.1% SDS. The class given is biochemical, White button mushrooms. As for the experimental part: (§1) White button mushrooms were purchased from local stores and blended in 100 mM sodium phosphate (pH 6.0) containing 1 mM EDTA, 1 mM PMSF, 5 mM ascorbic acid and 1 M sucrose. The homogenates were filtered and stored at −15 °C in small aliquots. Commercial mushroom tyrosinase. Mushroom tyrosinase was dissolved in the above buffer without ascorbic acid at 2 mg dry weight/mL and stored at 5 °C in small aliquots.
(§2) Each one mL assay contained a final concentration of 100 mM sodium phosphate (pH 6.5) and 2 mM DOPA. Crude, commercial or partially purified tyrosinase was added to initiate the reaction. […] Rates were determined from the linear portion of the absorbance vs. time curves. Crude enzyme was use at a concentration of 0.1 units (8.4 μg protein) per mL in the assay and assayed in the presence of 0.1% SDS. Commercial tyrosinase was used at a concentration of 0.038 units (3.3 μg protein) per mL in the assay. The purified enzyme was used at a concentration of 0.0067 units (0.58 μg protein) per mL in the assay.
(§3) Various amounts of inhibitors were added into assays to determine a range of inhibitors needed to encompass the IC50 value. Then assays were repeated within this range of inhibitor concentrations. Rates were determined as above. […] For the crude and commercial MT, experiments were repeated at least twice and the average IC50 value reported. Because of the limited amount of purified tyrosinase, not all experiments could be repeated twice. In experiments requiring DMSO to dissolve the inhibitor, control assays contained the assay mixture with DMSO but minus inhibitor. Final DMSO concentrations were 5% or less in the assays.

The target of a further assay is mushroom tyrosinase. Conditions: cited from earlier work.
The target of assay [2] is purified mushroom tyrosinase (MT) (Agaricus bisporus, UniProt C7FF04). In words: DOPA oxidation (dopachrome, 475 nm) assay with partially purified commercial MT. The class given is biochemical. As for the experimental part:
as §2, §3

In assay [3] the target is commercial mushroom tyrosinase (MT) (Agaricus bisporus, UniProt C7FF04). The experiment in a line: DOPA oxidation (dopachrome, 475 nm) assay with commercial MT. In kind it is biochemical. Particulars: for IC50: read-out: IC50 Commer. MT. The procedure:
Commercial mushroom tyrosinase was purchased from Worthington Biochemical Corp. (Lakewood, NJ, USA). Substrates and inhibitors were obtained from Sigma-Aldrich (St. Louis, MO, USA). Anisaldehyde was obtained form J.T. Baker Chemical Co. (Phillipsburg, NJ, USA). Dimethyl sulfoxide (DMSO) was reagent grade from Sigma-Aldrich (St. Louis, MO, USA).
as §1, §2, §3

Assay [4] has as its system mushroom tyrosinase (crude, commercial and purified MT). The experiment in a line: DOPA oxidation assay, statements pooled over crude, commercial and purified MT. The class given is biochemical. As for the experimental part: Each one mL assay contained a final concentration of 100 mM sodium phosphate (pH 6.5) and 2 mM DOPA. Crude, commercial or partially purified tyrosinase was added to initiate the reaction. Oxidation of DOPA into dopachrome was monitored at 475 nm. One unit of activity was defined as 1 μmole dopachrome formed per min per ml enzyme using an extinction coefficient of 3600 M^−1 cm^−1. Rates were determined from the linear portion of the absorbance vs. time curves. Crude enzyme was use at a concentration of 0.1 units (8.4 μg protein) per mL in the assay and assayed in the presence of 0.1% SDS. Commercial tyrosinase was used at a concentration of 0.038 units (3.3 μg protein) per mL in the assay. The purified enzyme was used at a concentration of 0.0067 units (0.58 μg protein) per mL in the assay.
Various amounts of inhibitors were added into assays to determine a range of inhibitors needed to encompass the IC50 value. Then assays were repeated within this range of inhibitor concentrations. Rates were determined as above. […] The concentration of inhibitor needed to inhibit 50% of the tyrosinase activity was extrapolated from % activity vs. [inhibitor] curves. For some inhibitors, we also used Statistical Data Analysis Software (SDAS, version 2008A) using an exponential equation to obtain a best fit curve and then to calculate IC50 values. For the crude and commercial MT, experiments were repeated at least twice and the average IC50 value reported. Because of the limited amount of purified tyrosinase, not all experiments could be repeated twice. In experiments requiring DMSO to dissolve the inhibitor, control assays contained the assay mixture with DMSO but minus inhibitor. Final DMSO concentrations were 5% or less in the assays.

Where two headings read alike, the source gives them in different places.

commercial mushroom tyrosinase (MT), sequence (C7FF04 1-392): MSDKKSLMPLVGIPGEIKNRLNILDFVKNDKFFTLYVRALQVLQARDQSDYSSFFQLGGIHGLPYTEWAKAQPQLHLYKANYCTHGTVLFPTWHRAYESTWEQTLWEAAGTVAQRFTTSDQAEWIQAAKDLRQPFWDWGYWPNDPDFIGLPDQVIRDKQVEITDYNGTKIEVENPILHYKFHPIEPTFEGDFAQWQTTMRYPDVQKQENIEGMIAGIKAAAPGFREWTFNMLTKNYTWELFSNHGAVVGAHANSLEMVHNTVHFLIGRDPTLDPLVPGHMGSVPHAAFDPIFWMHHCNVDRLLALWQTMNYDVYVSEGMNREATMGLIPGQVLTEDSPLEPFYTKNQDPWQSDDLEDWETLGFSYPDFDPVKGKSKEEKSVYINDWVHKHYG
commercial mushroom tyrosinase (MT), sequence (G1K3P4 entry or part of it, further chain): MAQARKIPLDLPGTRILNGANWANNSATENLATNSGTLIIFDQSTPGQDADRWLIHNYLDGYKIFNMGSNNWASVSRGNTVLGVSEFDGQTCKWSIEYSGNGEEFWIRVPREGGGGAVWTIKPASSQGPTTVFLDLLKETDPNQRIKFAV
purified mushroom tyrosinase (MT), sequence (C7FF04 1-392): as the sequence (C7FF04 1-392) above
purified mushroom tyrosinase (MT), sequence (G1K3P4 entry or part of it, further chain): as the sequence (G1K3P4 entry or part of it, further chain) above

`[Cl-].[Na+]` [NaCl]: the IC50 (in general, the concentration at which inhibition is half-maximal) was 65000 µM in assay [1] (2 mM DOPA, pH 6.5, 0.1% SDS) and 25000 µM at mushroom tyrosinase (DOPA as substrate, read-out: Reported IC50 Values).
As to 4,4’-dihydroxy-biphenyl [biphenol], the “Concentration beyond which purified MT activity increases” value in assay [2] (2 mM DOPA) was over 100 µM. For the same compound, the concentration for half-maximal inhibition (IC50) in assay [2] (2 mM DOPA, pH 6.5) is 67 µM; in assay [1] (2 mM DOPA, pH 6.5, 0.1% SDS), 50 µM; on mushroom tyrosinase (tyrosine as substrate, read-out: Reported IC50 Values) it was 1.9 µM; in assay [3] (2 mM DOPA, pH 6.5), 10 µM.
With `O=c1ccc2cc(O)c(O)cc2o1` [esculetin], half-maximal inhibition in assay [1] (2 mM DOPA, pH 6.5, 0.1% SDS) (IC50) was put at 70 µM.
Consider `O=c1cccccc1O` [tropolone], for which the half-inhibitory concentration (IC50) in assay [1] (2 mM DOPA, pH 6.5, 0.1% SDS) was 0.39 µM; at mushroom tyrosinase (read-out: Reported IC50 Values) it was 0.4 µM.
As to `CS(C)(=O)=O` [dimethyl sulfone], in assay [2] (to 2 mM), the “Inhibition of purified MT” value is reported as “NI to 2 mM”. Further, in assay [4] (up to 2 mM), the Inhibition of tyrosinase entry is given as “relatively little inhibition”. Besides, the “Inhibition of crude MT” value in assay [1] (to 2 mM) was “NI to 2 mM”. For the same compound, the “Inhibition of commercial MT” value in assay [3] (to 2 mM) was “NI to 2 mM”.
As for `COc1ccc(C=O)cc1` [anisaldehyde], the IC50 is 1000 to 1800 µM in assay [4] (2 mM DOPA, read-out: IC50, range between crude, commercial and purified MT); 1000 µM in assay [1] (2 mM DOPA, pH 6.5, 0.1% SDS); 160 µM on mushroom tyrosinase (read-out: Reported IC50 Values).
For the compound `O=S(=O)([O-])[O-].[Zn+2]` [ZnSO4], the “Inhibition of purified MT” value in assay [2] (at 1 mM) is “none@1 mM”. Also, the “Inhibition of MT” value in assay [4] (concentrations up to 1 mM) was “no inhibition”. Besides, the “Inhibition of crude MT” value in assay [1] (at 1 mM) was “none@1 mM”. On mushroom tyrosinase (assay coupling DOPA oxidation to thymol blue coloration, read-out: Reported IC50 Values), the IC50 was 50 µM. Also, the “Inhibition of commercial MT” value in assay [3] (at 1 mM) is listed as “none@1 mM”.
As for `Cn1cc[nH]c1=S` [methimazole], the concentration for half-maximal inhibition (IC50) in assay [1] (2 mM DOPA, pH 6.5, 0.1% SDS) is 46 µM; at mushroom tyrosinase (read-out: Reported IC50 Values), 200 µM.
Consider `COc1ccc(C(=O)O)cc1` [anisic acid], for which, on mushroom tyrosinase (read-out: Reported IC50 value), the concentration for half-maximal inhibition (IC50) is 680 µM.
For `CSC` [dimethyl sulfide], in assay [2] (to 500 μM), the “Inhibition of purified MT” value is listed as “NI to 500 μM”. In assay [4] (up to 500 μM, any of the MT samples), the “Inhibition of MT” value is “Little to no inhibition”. Also, the “Inhibition of crude MT” value in assay [1] (to 500 μM) is recorded as “NI to 500 μM”. Besides, in assay [3] (to 500 μM), the “Inhibition of commercial MT” value is listed as “NI to 500 μM”.
In the case of lysozyme, in assay [2] (2 mM DOPA, pH 6.5), the “IC50 Purified MT” value is given as over 20 mg/mL ^i. In assay [1] (2 mM DOPA, pH 6.5, 0.1% SDS), the “IC50 Crude MT” value is over 10 mg/mL ^g. Also, the “Reported inhibition of MT” value in the assay with mushroom tyrosinase (MT and lysozyme incubated for one hour before assaying) was 30%; in the assay with mushroom tyrosinase (mixing MT with lysozyme just before assaying), 8%. Further, on mushroom tyrosinase, the “Reported IC50 value” is 4.6 µg/mL. The IC50 on mushroom tyrosinase (read-out: Reported IC50 Values) was 0.32 µM. Also, the “IC50 Commer. MT” value in assay [3] (2 mM DOPA, pH 6.5) is listed as over 20 mg/mL ^h.
For the compound `Oc1ccc(O)cc1` [hydroquinone], the “Effect on purified MT activity” value in assay [2] is “activates ^f”. Moreover, in assay [1] (2 mM DOPA), the “Concentration up to which crude MT is activated” value is at most 100 µM and the “Effect on crude MT activity” value is recorded as “activates ^d”. In addition, the concentration for half-maximal inhibition (IC50) at mushroom tyrosinase (read-out: Reported IC50 Values) was 26 µM. Moreover, the “Effect on commercial MT activity” value in assay [3] is on record as “activates ^e”.
Consider `O=C(CCc1ccc(O)cc1)c1c(O)cc(O)cc1O[C@@H]1O[C@H](CO)[C@@H](O)[C@H](O)[C@H]1O` [phloridzin], for which the IC50 is 625 µM in assay [1] (2 mM DOPA, pH 6.5, 0.1% SDS) and 110 µM on mushroom tyrosinase (read-out: Reported IC50 Values).
For `CCCCCCc1ccc(O)cc1O` [4-HR, 4-hexylresorcinol], the IC50 in assay [1] (2 mM DOPA, pH 6.5, 0.1% SDS) is 5.8 µM; at mushroom tyrosinase (read-out: Reported IC50 Values) it was 0.85 µM.
`N.N.S.S.[S]=[Mo]=[S]` [ATTM, ammonium tetrathiomolybdate]: the IC50 in assay [1] (2 mM DOPA, pH 6.5, 0.1% SDS) was 3.4 µM; on mushroom tyrosinase (read-out: Reported IC50 Values), 2 µM; in assay [3] (2 mM DOPA, pH 6.5), 3.3 µM.
On to `O=c1cc(CO)occ1O` [kojic acid], for which the IC50 in assay [1] (2 mM DOPA, pH 6.5, 0.1% SDS) turned out to be 36 µM.
